IC50 and inhibition data for nine compounds are collected here from patent US7825110B2, “Substituted spiroheterocycles” (Janssen Pharmaceutica NV, priority 2006, dated 2010).

The target of assay [1] is T1, human V1a receptor (Homo sapiens, UniProt P37288). Nature of the assay: In-vitro binding assay, 3H-arginine-8-vasopressin, V1a. As to conditions: for IC50: membrane containing human V1a receptor, displacement of H3 vasopressin; for inhibition at 0.2 µM: 0.2 μM test compound, read-out: V1a (binding), Percent inhibition at 0.2 μM. The procedure: (§1) Assay buffer is 50 mM Tris-Cl, 5 mM MgCl2, 0.1% BSA (pH 7.5) containing 5 μg/ml of aprotinin, leupeptin, pepstatin, 50 μg/ml bacitracin, and 1 mM Pefabloc (4-(2-Aminoethyl)-benzenesulfonyl fluoride, hydrochloride manufactured by Roche Diagnostics Corporation, Indianapolis, Ind. and distributed by Boehringer Mannheim). H3 vasopressin is ^3H-arginine-8-vasopressin (NEN Life Sciences, Boston, Mass.; 68.5 Ci/mmol, final concentration in assay is 0.65-0.75 nM). Into wells of 96-well round bottom polypropylene plates are added buffer, test compound, membrane (containing human V1a or V2 receptor), and H3 vasopressin. The reaction plates are allowed to sit at room temperature for one hour. The samples are filtered through Unifilter GF/C plates (PerkinElmer Life Sciences, Boston, Mass.) presoaked in […]. The plates are washed 5 times with cold physiological saline containing 0.05% Tween 20. After drying, the bottom of the filter plates
T1 sequence (P37288 whole entry): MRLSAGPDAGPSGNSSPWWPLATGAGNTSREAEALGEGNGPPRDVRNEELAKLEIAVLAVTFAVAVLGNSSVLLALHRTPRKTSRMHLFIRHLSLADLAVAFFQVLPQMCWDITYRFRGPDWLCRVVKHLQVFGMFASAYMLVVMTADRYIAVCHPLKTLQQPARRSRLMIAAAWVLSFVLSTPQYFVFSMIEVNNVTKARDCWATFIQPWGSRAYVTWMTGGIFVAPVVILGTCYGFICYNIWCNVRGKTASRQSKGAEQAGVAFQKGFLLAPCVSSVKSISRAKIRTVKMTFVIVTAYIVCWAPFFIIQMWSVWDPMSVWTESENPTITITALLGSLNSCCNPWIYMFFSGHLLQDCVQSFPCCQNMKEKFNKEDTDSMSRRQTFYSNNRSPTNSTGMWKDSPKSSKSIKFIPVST
(§2) [formula] are sealed and 0.025 ml of Microscint-20 (Packard Instrument Co, Meriden, Conn.) is added to each filter. The top of the plate is sealed, and the plate is counted. Non-specific binding is determined by the addition of 1.25 μM arginine-8-vasopressin in those wells. % Inh. is calculated as follows: […]

Assay [2] deals with T2, human V2 receptor (Homo sapiens, UniProt P30518). Nature of the assay: In-vitro binding assay, 3H-arginine-8-vasopressin, V2. The following applies: for IC50: membrane containing human V2 receptor, displacement of H3 vasopressin; for inhibition at 0.2 µM: 0.2 μM test compound, read-out: V2 (binding), Percent inhibition at 0.2 μM. The procedure:
as §1, §2

Assay [3] concerns the target T1, human V1a receptor. Nature of the assay: V1a vasopressin receptor functional activity (intracellular calcium mobilization, FLIPR, V1a-HEK cells). In kind it is cell-based. As to conditions: antagonism of vasopressin-induced calcium mobilization in V1a-HEK cells. The procedure: The V1a receptor is a G-protein coupled receptor, which upon activation triggers an increase in intracellular calcium mobilization. To evaluate compounds for their functional V1a receptor activity, HEK-293 cells were transfected with the human V1a receptor (V1a-HEK cells). HEK-293 cells were grown in DMEM (Dulbecco's modified Eagle Media) supplemented with 10% FBS and glutamine. HEK-cells were passed biweekly by trypsinization and seeded into 96 well plates at 33,000 cells per well. HEK-293 cells were transfected with human V1a receptor DNA using DMRIE-C reagent from Life Technologies (Carlsbad, Calif.). Stable lines were generated by selecting cells grown in culture media containing geneticin. After growing in Packard Clear-View black 96 well plates for 4-6 days, V1a-HEK cells were loaded with the calcium-sensitive fluorescence dye, FLUO-3 AM. Changes in intracellular calcium mobilization were measured by quantitating intracellular fluorescence using FLIPR (Fluorometric Imaging Plate Reader; Molecular Devices, Sunnyvale, Calif.). Test compounds were first added to the cells and the resulting changes in fluorescence measured to detect receptor agonistic activity. Five minutes later the cells were challenged with vasopressin to test compounds for their antagonistic activity. Receptor antagonists inhibit the ability of vasopressin to stimulate increases in intracellular fluorescence. IC50's were calculated.
On the technique in general: A change in cytosolic calcium serves as a functional read-out for many receptors and channels.

Assay [4] has as its target T2, human V2 receptor. Nature of the assay: V2 vasopressin receptor functional activity (cAMP accumulation, V2-HEK cells). In kind it is cell-based. More on the design: expressed in transfected cells; host or cells: HEK-293. As to conditions: block of vasopressin-stimulated cAMP accumulation in V2-HEK cells. The procedure: The V2 receptor is also a G-protein coupled receptor which when activated induces an increase in cAMP turnover. Antagonism against the V2 receptor is determined by measuring cAMP accumulation in transfected HEK-293 cells expressing the human V-2 receptor (V2-HEK cells). Compounds are tested for their ability to block the stimulatory effects of vasopressin on cAMP accumulation. The cell content of cAMP is measured by radioimmunoassay using NEN flashplates.
(Changes in cAMP serve as a functional read-out for many G protein-coupled receptors.)

T2 sequence (P30518 whole entry): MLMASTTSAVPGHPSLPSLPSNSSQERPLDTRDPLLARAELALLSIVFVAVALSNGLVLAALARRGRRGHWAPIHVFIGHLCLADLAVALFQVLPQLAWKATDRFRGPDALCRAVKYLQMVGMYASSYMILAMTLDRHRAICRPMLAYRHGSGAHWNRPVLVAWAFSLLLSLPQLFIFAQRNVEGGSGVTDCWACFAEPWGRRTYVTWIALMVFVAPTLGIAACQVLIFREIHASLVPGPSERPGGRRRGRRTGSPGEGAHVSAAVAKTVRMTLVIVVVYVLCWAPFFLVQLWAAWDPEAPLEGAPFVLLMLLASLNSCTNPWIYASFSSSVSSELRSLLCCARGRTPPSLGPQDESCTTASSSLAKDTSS

For the compound `CN1CCCC2(CCN(C(=O)c3ccc(NC(=O)c4ccccc4-c4ccccc4)cc3)c3ccccc3C2)C1` (centres unmarked) [Compound 10, [1,1′-Biphenyl]-2-carboxamide, N-[4-[(2,3-dihydro-1′-methyl-spiro{4H-1-benzazepine-4,3′-piperidin}-1(5H)-yl)carbonyl]phenyl}-], the 50% inhibitory concentration (IC50) at human V1a receptor [1] came to 15 nM; on human V2 receptor [2] it was 29 nM; on human V1a receptor [3] it was 0.08 µM; against human V2 receptor [4], 0.064 µM.
For the compound `COC(=O)CN1CCC2(CCN(C(=O)c3ccc(NC(=O)c4ccccc4-c4ccccc4)cc3)c3ccccc3C2)C1` (centres unmarked) [Compound 22, [1,1′-Biphenyl]-2-carboxamide, N-[4-[(2,3-dihydro-1′-acetic acid-spiro{4H-1-benzazepine-4,3′-pyrrolidin}-1(5H)-yl)carbonyl]phenyl}-, methyl ester], the inhibition at 0.2 µM on human V1a receptor [1] is 66%. Moreover, the figures for the half-maximal inhibitory concentration (IC50) at human V2 receptor [2], on human V1a receptor [3] and at human V2 receptor [4] were 110 nM, 0.4 µM and 0.049 µM, respectively.
For the compound `O=C(Nc1ccc(C(=O)N2CCC3(CCN(C4CCCC4)C3)Cc3ccccc32)cc1)c1ccccc1-c1ccccc1` (centres unmarked) [Compound 18], the inhibition at 0.2 µM on human V1a receptor [1] was 66%; at human V2 receptor [2] it was 70%.
On to `O=C(O)CC(=O)N1CCC2(CCN(C(=O)c3ccc(NC(=O)c4ccccc4-c4ccccc4)cc3)c3ccccc3C2)C1` (centres unmarked) [Compound 26], for which the inhibition at 0.2 µM on human V1a receptor [1] turned out to be 23%; at human V2 receptor [2], 83%. This compound displayed a half-maximal inhibitory concentration (IC50) against human V2 receptor [4] of 0.272 µM.
As for `CN1CCCC2(CCN(C(=O)c3ccc(NC(=O)c4cc(F)ccc4Cl)cc3)c3ccccc3C2)C1` (centres unmarked) [Compound 8, Benzamide, 2-chloro-N-[4-{(2,3-dihydro-1′-methyl-spiro[4H-1-benzazepine-4,3-piperidin}-1(5H)-yl)carbonyl}phenyl]-5-fluoro], the values for the IC50 on human V1a receptor [1], on human V1a receptor [3] and at human V2 receptor [4] were 12 nM, 0.01 µM and 0.46 µM, respectively. Further, the inhibition at 0.2 µM at human V2 receptor [2] was found to be 52%.
For `CC(=O)N1CCC2(CCN(C(=O)c3ccc(NC(=O)c4ccccc4-c4ccccc4)cc3)c3ccccc3C2)C1` (centres unmarked) [Compound 27, [1,1′-Biphenyl]-2-carboxamide, N-[4-[(2,3-dihydro-1′-acetyl-spiro{4H-1-benzazepine-4,3′-pyrrolidin}-1(5H)-yl)carbonyl]phenyl}-], the inhibition at 0.2 µM on human V1a receptor [1] worked out at 61%; at human V2 receptor [2], 78%. Besides, the values for the IC50 on human V1a receptor [3] and against human V2 receptor [4] were 0.21 µM and 0.182 µM, respectively.
For `CN(C)CC(=O)N1CCC2(CCN(C(=O)c3ccc(NC(=O)c4ccccc4-c4ccccc4)cc3)c3ccccc3C2)C1` (centres unmarked) [Compound 28, [1,1′-Biphenyl]-2-carboxamide, N-[4-[(2,3-dihydro-(1′-(2-(dimethylamino)acetyl))spiro{4H-1-benzazepine-4,3′-pyrrolidin}-1(5H)-yl)carbonyl]phenyl]-;], the IC50 at human V1a receptor [1] was 260 nM.
In the case of `CCOC(=O)CC(=O)N1CCC2(CCN(C(=O)c3ccc(NC(=O)c4ccccc4-c4ccccc4)cc3)c3ccccc3C2)C1` (centres unmarked) [Compound 25, [1,1′-Biphenyl]-2-carboxamide, N-[4-[(2,3-dihydro-1′-pyruvic acid-spiro{4H-1-benzazepine-4,3′-pyrrolidin}-1(5H)-yl)carbonyl]phenyl}-, ethyl ester], the inhibition at 0.2 µM on human V1a receptor [1] was found to be 35%; at human V2 receptor [2], 77%. The same compound came in with a half-inhibitory concentration (IC50) at human V2 receptor [4] of 0.306 µM.
`CCOC(=O)CN1CCC2(CCN(C(=O)c3ccc(NC(=O)c4ccccc4-c4ccccc4)cc3)c3ccccc3C2)C1` (centres unmarked) [Compound 23, [1,1′-Biphenyl]-2-carboxamide, N-[4-[(2,3-dihydro-1′-acetic acid-spiro{4H-1-benzazepine-4,3′-pyrrolidin}-1(5H)-yl)carbonyl]phenyl}-, ethyl ester]: the results for the inhibition at 0.2 µM at human V1a receptor [1] and on human V2 receptor [2] were 75% and 58%, respectively. The half-maximal inhibitory concentration (IC50) stood at 0.78 µM on human V1a receptor [3] and 0.673 µM on human V2 receptor [4].

As a reminder, the IC50 is the point on the concentration scale where inhibition reaches its midpoint. The term inhibition denotes the percentage by which the read-out fell short of the control.
